Patent publication US4141989A, “Fungicidal 3-(N-chloroacetyl-N-arylamino)-gamma-butyrolactone compositions” (Chevron Research Company, priority 1977, dated 1979)

Assays:
Plasmopara viticola [1] = assay: Preventive grape downy mildew control, detached Emperor leaves (Example 5, Table I); type: in vivo; details: 6.4 ppm, sprayed before inoculation
Plasmopara viticola [2] = assay: Eradicant grape downy mildew control, detached Emperor leaves (Example 6, Table I); type: in vivo; details: 48 h, sprayed 2 days after inoculation, read-out: Eradicative Grape Downy Mildew Control, %
Plasmopara viticola [3] = assay: Preventive grape downy mildew control, detached Cabernet Sauvignon leaves (Example 7, Table II); type: in vivo
[4] = tested on: yeasts responsible for the alcoholic fermentation of grapes; assay: Fermentation test, grape juice (Example 8, Table III); type: cell-based
Plasmopara viticola [5] = assay: Eradicant downy mildew control on grape cuttings, wettable powder (Example 10, Table V); type: in vivo
Experimental: Three-month-old single-bud Cabernet Sauvignon cuttings (cultivated in gravel) containing 6 to 10 leaves were used as hosts. The undersides of the leaves were sprayed with a sporangial suspension of Plasmopara viticola containing 510,000 conidia per milliliter of water. The inoculated cuttings were placed into a misting chamber. […] Ten to 11 days after the inoculation, the amount of disease control was determined. The percent disease control provided by the test compound was based on the percent disease reduction relative to untreated check cuttings.

Plasmopara viticola [6] = assay: Residual preventive grape downy mildew control, wettable powder (Example 11, Table VI); type: in vivo; details: 160 ppm, inoculated 3 days after treatment
Experimental: Three-month-old single-bud Cabernet Sauvignon cuttings (cultivated in gravel), containing 5 to 8 leaves, were used as hosts. […] Three days after fungicide treatment, the undersides of the leaves were sprayed with a sporangial suspension of Plasmopara viticola. The inoculated cuttings were put into a misting chamber. Eight to 10 days after the inoculation, the amount of disease control was determined. The percent disease control provided by the test compound was based on the percent disease reduction relative to untreated check cuttings.

Plasmopora viticola = assay: Control of foliar grape downy mildew infection by root absorption (Example 12, Table VII); type: in vivo; details: 50% wettable powder, 50 ppm
Source text: Three-month-old single-bud Cabernet Sauvignon cuttings (cultivated in gravel), containing 9 to 12 leaves, were used as hosts. […] The cuttings were then replanted in gravel and put into a misting chamber. At four different times after root treatment, the leaf undersides were sprayed with a sporangial suspension of Plasmopora viticola. The inoculated cuttings were placed into the misting chamber to stimulate disease development. Ten to 12 days after inoculation, the amount of disease control was determined. The percent disease control provided by the test compound was based on the percent disease reduction relative to untreated check cuttings.

Bremia lactucae = assay: Control of lettuce downy mildew (Example 13, Table VIII); type: in vivo
[7] = tested on: Peronospora parasitica ssp. brassicae; assay: Preventive control of cabbage downy mildew (Example 14, Table IX); type: in vivo; details: for % Control: disease reduction relative to check flat
[8] = tested on: Peronospora parasitica ssp. brassicae; assay: Curative control of cabbage downy mildew (Example 14, Table IX); type: in vivo; details: for % Control: disease reduction relative to check flat
[9] = tested on: Pseudoperonospora cubensis; assay: Foliar spray control of cucumber downy mildew (Example 15, Table X); type: in vivo
Phytophthora cryptogea [10] = assay: Snapdragon crown and root rot control, soil drench (Example 16, Table XI); type: in vivo; details: soil drench, 100 ppm
Phytophthora cryptogea [11] = assay: Snapdragon crown and root rot control, foliar spray (Example 16, Table XI); type: in vivo; details: foliar spray, 100 ppm
Phytophthora cryptogea [12] = assay: Safflower crown and root rot control by foliar spray (Example 17, Table XII); type: in vivo
Phytophthora cryptogea [13] = assay: Safflower crown and root rot control by soil drench, P. cryptogea (Example 18, Table XIII); type: in vivo
P. parasitica = assay: Safflower crown and root rot control by soil drench, P. parasitica (Example 18, Table XIII); type: in vivo
P. cryptogea = assay: Tobacco crown and root rot control by soil drench, P. cryptogea (Example 19, Table XIV); type: in vivo
Phytophthora parasitica = assay: Tobacco crown and root rot control by soil drench, P. parasitica (Example 19, Table XIV); type: in vivo
Phytophthora capsici = assay: Control of Phytophthora rot in sweet peppers (Example 20, Table XV); type: in vivo; details: 50% wettable powder
Experimental: The pots were then inoculated with the organism by spreading a bed of oats grain (contaminated with the Phytophthora capsici organism) on the soil surface and covering the bed with a 1-cm depth of sterilized soil. The sweet pepper seedlings were then sprayed to runoff with an aqueous suspension of the test compound at various test concentrations (12 pots per concentration level). The amount of disease control was determined by counting the number of dead plants. The percent disease control provided by the test compound was based on the percent disease reduction relative to untreated check seedlings.

Oral LD50 (rats) = details: rat, in vivo
Dermal LD50 (rats) = details: rat, in vivo, topical or ocular
[14] = 61.5 ppm, treated 3 days after inoculation
[15] = 62.5 ppm, treated 1 day after inoculation
[16] = 62.5 ppm, treated 2 days after inoculation
[17] = inoculated 1 day after root treatment
[18] = inoculated 5 days after root treatment

Cc1cccc(C)c1N(C(=O)CCl)C1CCOC1=O (stereo not drawn) [Compound A, 3-(N-chloroacetyl-N-2,6-dimethylphenylamino)-gamma-butyrolactone]
pest or weed control at 6.4 ppm (Plasmopara viticola [1]): 97%
pest or weed control at 6.4 ppm (Plasmopara viticola [2]; 6.4 ppm): 99%
pest or weed control at 100 ppm (Plasmopara viticola [2]; 100 ppm): 99%
Percent Control (Plasmopara viticola [3]; 6.4 ppm): 100%
Percent Control (Plasmopara viticola [3]; 16 ppm): 100%
Percent Control (Plasmopara viticola [3]; 40 ppm): 100%
Cumulative loss of weight due to CO2 escape ([4]; 1 ppm, after 1 day): 0.9 grams
Cumulative loss of weight due to CO2 escape ([4]; 1 ppm, after 2 days): 5.0 grams
Cumulative loss of weight due to CO2 escape ([4]; 1 ppm, after 3 days): 10.5 grams
Cumulative loss of weight due to CO2 escape ([4]; 1 ppm, after 4 days): 11.3 grams
Cumulative loss of weight due to CO2 escape ([4]; 1 ppm, after 7 days): 14.2 grams
Cumulative loss of weight due to CO2 escape ([4]; 1 ppm, after 8 days): 14.5 grams
Cumulative loss of weight due to CO2 escape ([4]; 2 ppm, after 1 day): 0.8 grams
Cumulative loss of weight due to CO2 escape ([4]; 2 ppm, after 2 days): 5.2 grams
Cumulative loss of weight due to CO2 escape ([4]; 2 ppm, after 3 days): 10.4 grams
Cumulative loss of weight due to CO2 escape ([4]; 2 ppm, after 4 days): 11.1 grams
Cumulative loss of weight due to CO2 escape ([4]; 2 ppm, after 7 days): 13.4 grams
Cumulative loss of weight due to CO2 escape ([4]; 2 ppm, after 8 days): 13.7 grams
Cumulative loss of weight due to CO2 escape ([4]; 4 ppm, after 1 day): 1.0 grams
Cumulative loss of weight due to CO2 escape ([4]; 4 ppm, after 2 days): 5.2 grams
Cumulative loss of weight due to CO2 escape ([4]; 4 ppm, after 3 days): 10.4 grams
Cumulative loss of weight due to CO2 escape ([4]; 4 ppm, after 4 days): 11.1 grams
Cumulative loss of weight due to CO2 escape ([4]; 4 ppm, after 7 days): 13.1 grams
Cumulative loss of weight due to CO2 escape ([4]; 4 ppm, after 8 days): 13.3 grams
Cumulative loss of weight due to CO2 escape ([4]; 8 ppm, after 1 day): 1.0 grams
Cumulative loss of weight due to CO2 escape ([4]; 8 ppm, after 2 days): 5.4 grams
Cumulative loss of weight due to CO2 escape ([4]; 8 ppm, after 3 days): 11.0 grams
Cumulative loss of weight due to CO2 escape ([4]; 8 ppm, after 4 days): 11.8 grams
Cumulative loss of weight due to CO2 escape ([4]; 8 ppm, after 7 days): 14.5 grams
Cumulative loss of weight due to CO2 escape ([4]; 8 ppm, after 8 days): 15.2 grams
% Disease Control (Plasmopara viticola [5]; [14]): 84.7%
% Leaf Surface Infected (Plasmopara viticola [5]; [14]): 4.15%
% Disease Control (Plasmopara viticola [5]; 62.5 ppm): 91.6%
% Disease Control (Plasmopara viticola [5]; [15]): 97.6%
% Leaf Surface Infected (Plasmopara viticola [5]; [15]): 0.51%
% Disease Control (Plasmopara viticola [5]; [16]): 96.2%
% Leaf Surface Infected (Plasmopara viticola [5]; [16]): 0.55%
% Leaf Surface Infected (Plasmopara viticola [5]; 62.5 ppm, treated 5 days after inoculation): 2.5%
% Disease Control (Plasmopara viticola [6]): 99.8%
% Leaf Surface Infected (Plasmopara viticola [6]): 0.03%
% Disease Control (Plasmopora viticola; [17]): 33.5%
% Leaf Surface Infected (Plasmopora viticola; [17]): 6.26%
% Disease Control (Plasmopora viticola; [18]): 98%
% Leaf Surface Infected (Plasmopora viticola; [18]): 0.32%
% Control (Bremia lactucae; 25 g active/hl): 75.8%
% Dead Seedlings (Bremia lactucae; 25 g active/hl): 5.9%
% Control (Bremia lactucae; 50 g active/hl): 90.6%
% Dead Seedlings (Bremia lactucae; 50 g active/hl): 1.1%
% Control (Bremia lactucae; 100 g active/hl): 95.5%
% Dead Seedlings (Bremia lactucae; 100 g active/hl): 2.3%
% Diseased Seedlings ([7]; 20 g a.i./hl): 1.8%
% Control ([7]; 20 g a.i./hl): 98.2%
% Diseased Seedlings ([7]; 40 g a.i./hl): 2.2%
% Control ([7]; 40 g a.i./hl): 97.7%
% Diseased Seedlings ([7]; 80 g a.i./hl): 1.5%
% Control ([7]; 80 g a.i./hl): 98.5%
% Diseased Seedlings ([8]; 20 g a.i./hl): 1.8%
% Control ([8]; 20 g a.i./hl): 98.2%
% Diseased Seedlings ([8]; 40 g a.i./hl): 1.0%
% Control ([8]; 40 g a.i./hl): 99.0%
% Diseased Seedlings ([8]; 80 g a.i./hl): 0.6%
% Control ([8]; 80 g a.i./hl): 99.4%
% Control ([9]; 16 ppm): 63%
% Control ([9]; 40 ppm): 88%
% Control ([9]; 100 ppm): 100%
% Control (Phytophthora cryptogea [10]): 100%
% Control (Phytophthora cryptogea [11]): 97%
% Control (Phytophthora cryptogea [12]; 16 ppm): 92%
% Control (Phytophthora cryptogea [12]; 40 ppm): 97%
% Control (Phytophthora cryptogea [12]; 100 ppm): 100%
% Control, P. Cryptogea (Phytophthora cryptogea [13]; 16 ppm): 92%
% Control, P. Cryptogea (Phytophthora cryptogea [13]; 40 ppm): 97%
% Control, P. Cryptogea (Phytophthora cryptogea [13]; 100 ppm): 100%
% Control, P. Parasitica (P. parasitica; 16 ppm): 94%
% Control, P. Parasitica (P. parasitica; 40 ppm): 99%
% Control, P. Parasitica (P. parasitica; 100 ppm): 100%
% Control, P. Cryptogea (P. cryptogea; 16 ppm): 96%
% Control, P. Cryptogea (P. cryptogea; 40 ppm): 99.8%
% Control, P. Cryptogea (P. cryptogea; 100 ppm): 100%
% Control, P. Parasitica (Phytophthora parasitica; 16 ppm): 96%
% Control, P. Parasitica (Phytophthora parasitica; 40 ppm): 99.8%
% Control, P. Parasitica (Phytophthora parasitica; 100 ppm): 100%
% Control (Phytophthora capsici; 100 g/hl): 25%
% Leaf Surface Damaged (Phytophthora capsici; 100 g/hl): 0%
% of Alive Seedlings (Phytophthora capsici; 100 g/hl): 50%
% Control (Phytophthora capsici; 200 g/hl): 100%
% Leaf Surface Damaged (Phytophthora capsici; 200 g/hl): 1.3%
% of Alive Seedlings (Phytophthora capsici; 200 g/hl): 100%
% Control (Phytophthora capsici; 400 g/hl): 100%
% Leaf Surface Damaged (Phytophthora capsici; 400 g/hl): 1.63%
% of Alive Seedlings (Phytophthora capsici; 400 g/hl): 100%
LD50 (Oral LD50 (rats)): > 1000 mg/kg
LD50 (Dermal LD50 (rats)): > 2000 mg/kg
